Assay results: the kinase profiling compilation of Christmann-Franck et al. (2016)

Assays:
Assay in all cases: KINOMEscan competition binding
[1] = target: STK38L (human) (UniProt Q9Y2H1); conditions: compound 1.0 µM
[2] = system: PIK3CA (human), P42336 [H1047L]; conditions: compound 1.0 µM
[3] = target: TEC (human) (UniProt P42680); conditions: compound 1.0 µM
[4] = target: MAP3K12 (human) (UniProt Q12852); conditions: compound 1.0 µM
[5] = target: AXL (human) (UniProt P30530); conditions: compound 1.0 µM
[6] = target: ADCK4 (human) (UniProt Q96D53); conditions: compound 1.0 µM
[7] = target: EPHA1 (human) (UniProt P21709); conditions: compound 1.0 µM
Chain of EPHA1 (human) (P21709 whole entry, looked up): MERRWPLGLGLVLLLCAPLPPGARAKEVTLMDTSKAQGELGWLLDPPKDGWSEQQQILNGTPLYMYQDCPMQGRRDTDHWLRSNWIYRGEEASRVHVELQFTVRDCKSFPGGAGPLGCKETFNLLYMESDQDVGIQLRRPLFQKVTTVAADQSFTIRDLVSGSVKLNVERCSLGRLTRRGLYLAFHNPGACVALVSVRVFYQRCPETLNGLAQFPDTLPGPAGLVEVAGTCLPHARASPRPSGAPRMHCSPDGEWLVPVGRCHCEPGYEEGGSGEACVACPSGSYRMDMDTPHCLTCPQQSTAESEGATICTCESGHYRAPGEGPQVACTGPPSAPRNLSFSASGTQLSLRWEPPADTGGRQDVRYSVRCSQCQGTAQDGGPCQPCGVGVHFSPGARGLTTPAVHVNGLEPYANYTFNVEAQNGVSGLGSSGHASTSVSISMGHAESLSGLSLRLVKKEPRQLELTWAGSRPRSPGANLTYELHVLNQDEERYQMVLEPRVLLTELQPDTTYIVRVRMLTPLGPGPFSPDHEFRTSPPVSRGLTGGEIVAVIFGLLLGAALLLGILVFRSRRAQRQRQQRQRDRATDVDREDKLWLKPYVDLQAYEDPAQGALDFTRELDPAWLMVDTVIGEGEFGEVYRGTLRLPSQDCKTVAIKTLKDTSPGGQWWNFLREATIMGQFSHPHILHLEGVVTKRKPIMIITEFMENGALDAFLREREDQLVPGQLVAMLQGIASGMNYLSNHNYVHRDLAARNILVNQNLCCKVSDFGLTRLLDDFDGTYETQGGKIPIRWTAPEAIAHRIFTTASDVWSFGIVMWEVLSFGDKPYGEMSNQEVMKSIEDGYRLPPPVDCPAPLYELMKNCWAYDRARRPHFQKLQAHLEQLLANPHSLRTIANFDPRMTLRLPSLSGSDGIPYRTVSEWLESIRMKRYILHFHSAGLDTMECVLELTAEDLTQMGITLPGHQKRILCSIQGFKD

[8] = target: AAK1 (human) (UniProt Q2M2I8); conditions: compound 1.0 µM
[9] = target: MAP3K11 (human) (UniProt Q16584); conditions: compound 1.0 µM
[10] = target: TYK2 JH2 pseudokinase (human) (UniProt P29597); conditions: compound 1.0 µM
[11] = system: FLT3 (human), P36888 [ITD]; conditions: compound 1.0 µM
[12] = target: ULK2 (human) (UniProt Q8IYT8); conditions: compound 1.0 µM
[13] = target: FGFR4 (human) (UniProt P22455); conditions: compound 1.0 µM
[14] = target: MAP2K5 (human) (UniProt Q13163); conditions: compound 1.0 µM
[15] = target: CSNK1G3 (human) (UniProt Q9Y6M4); conditions: compound 1.0 µM
[16] = target: MAP3K10 (human) (UniProt Q02779); conditions: compound 1.0 µM
Chain of MAP3K10 (human) (Q02779 whole entry, looked up): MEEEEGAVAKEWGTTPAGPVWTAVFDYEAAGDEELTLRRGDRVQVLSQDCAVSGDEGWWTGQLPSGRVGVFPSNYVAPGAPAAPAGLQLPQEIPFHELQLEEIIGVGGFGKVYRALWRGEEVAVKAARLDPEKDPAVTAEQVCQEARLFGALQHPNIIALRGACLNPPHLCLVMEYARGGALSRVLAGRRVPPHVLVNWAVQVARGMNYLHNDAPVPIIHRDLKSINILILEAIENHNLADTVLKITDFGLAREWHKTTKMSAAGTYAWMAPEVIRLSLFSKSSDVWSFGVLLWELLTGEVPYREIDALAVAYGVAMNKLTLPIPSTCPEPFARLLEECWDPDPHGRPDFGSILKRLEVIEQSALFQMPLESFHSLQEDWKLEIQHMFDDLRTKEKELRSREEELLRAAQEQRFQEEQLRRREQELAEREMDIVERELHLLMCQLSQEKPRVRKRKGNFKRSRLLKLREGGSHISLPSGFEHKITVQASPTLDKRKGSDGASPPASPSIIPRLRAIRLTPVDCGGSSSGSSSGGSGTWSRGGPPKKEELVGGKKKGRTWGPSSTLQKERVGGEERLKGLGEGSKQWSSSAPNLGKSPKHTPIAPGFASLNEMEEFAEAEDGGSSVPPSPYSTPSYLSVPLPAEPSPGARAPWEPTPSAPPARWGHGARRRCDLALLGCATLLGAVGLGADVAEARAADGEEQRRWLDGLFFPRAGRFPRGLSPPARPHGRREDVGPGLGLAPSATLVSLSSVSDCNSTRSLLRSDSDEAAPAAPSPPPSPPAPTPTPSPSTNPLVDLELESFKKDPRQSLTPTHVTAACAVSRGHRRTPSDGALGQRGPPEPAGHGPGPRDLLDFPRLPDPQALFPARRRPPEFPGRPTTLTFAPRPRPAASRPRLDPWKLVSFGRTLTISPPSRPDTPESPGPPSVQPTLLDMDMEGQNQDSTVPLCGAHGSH

[17] = target: STK17B (human) (UniProt O94768); conditions: compound 1.0 µM
[18] = system: EGFR (human), P00533 [747-751 del / S ins]; conditions: compound 1.0 µM
[19] = target: GRK7 (human) (UniProt Q8WTQ7); conditions: compound 1.0 µM
[20] = target: HIPK1 (human) (UniProt Q86Z02); conditions: compound 1.0 µM
[21] = target: RPS6KA6 KD2 (human) (UniProt Q9UK32); conditions: compound 1.0 µM
Chain of RPS6KA6 KD2 (human) (Q9UK32 whole entry, looked up): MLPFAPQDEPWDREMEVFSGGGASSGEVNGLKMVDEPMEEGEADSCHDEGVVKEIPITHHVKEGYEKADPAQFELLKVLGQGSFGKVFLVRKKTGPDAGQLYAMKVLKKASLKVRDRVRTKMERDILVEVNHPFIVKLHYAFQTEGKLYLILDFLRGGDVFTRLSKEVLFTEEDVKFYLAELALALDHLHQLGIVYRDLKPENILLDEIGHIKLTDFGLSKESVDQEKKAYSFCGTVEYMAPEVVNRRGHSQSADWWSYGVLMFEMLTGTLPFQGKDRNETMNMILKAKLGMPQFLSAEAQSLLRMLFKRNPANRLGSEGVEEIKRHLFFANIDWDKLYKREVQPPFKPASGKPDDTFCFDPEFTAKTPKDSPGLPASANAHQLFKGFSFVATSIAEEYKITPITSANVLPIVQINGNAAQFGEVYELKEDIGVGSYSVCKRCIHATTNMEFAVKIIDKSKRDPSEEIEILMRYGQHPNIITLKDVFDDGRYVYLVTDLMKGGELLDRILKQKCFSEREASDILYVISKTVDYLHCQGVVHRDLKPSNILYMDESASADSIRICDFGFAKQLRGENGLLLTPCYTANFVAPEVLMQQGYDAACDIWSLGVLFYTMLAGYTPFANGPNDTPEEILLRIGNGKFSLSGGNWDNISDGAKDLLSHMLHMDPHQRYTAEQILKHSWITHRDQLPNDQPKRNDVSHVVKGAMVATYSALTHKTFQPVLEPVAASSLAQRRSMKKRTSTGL

[22] = target: MARK2 (human) (UniProt Q7KZI7); conditions: compound 1.0 µM
[23] = target: YSK4 (human) (UniProt Q56UN5)
Chain of YSK4 (human) (Q56UN5 whole entry, looked up): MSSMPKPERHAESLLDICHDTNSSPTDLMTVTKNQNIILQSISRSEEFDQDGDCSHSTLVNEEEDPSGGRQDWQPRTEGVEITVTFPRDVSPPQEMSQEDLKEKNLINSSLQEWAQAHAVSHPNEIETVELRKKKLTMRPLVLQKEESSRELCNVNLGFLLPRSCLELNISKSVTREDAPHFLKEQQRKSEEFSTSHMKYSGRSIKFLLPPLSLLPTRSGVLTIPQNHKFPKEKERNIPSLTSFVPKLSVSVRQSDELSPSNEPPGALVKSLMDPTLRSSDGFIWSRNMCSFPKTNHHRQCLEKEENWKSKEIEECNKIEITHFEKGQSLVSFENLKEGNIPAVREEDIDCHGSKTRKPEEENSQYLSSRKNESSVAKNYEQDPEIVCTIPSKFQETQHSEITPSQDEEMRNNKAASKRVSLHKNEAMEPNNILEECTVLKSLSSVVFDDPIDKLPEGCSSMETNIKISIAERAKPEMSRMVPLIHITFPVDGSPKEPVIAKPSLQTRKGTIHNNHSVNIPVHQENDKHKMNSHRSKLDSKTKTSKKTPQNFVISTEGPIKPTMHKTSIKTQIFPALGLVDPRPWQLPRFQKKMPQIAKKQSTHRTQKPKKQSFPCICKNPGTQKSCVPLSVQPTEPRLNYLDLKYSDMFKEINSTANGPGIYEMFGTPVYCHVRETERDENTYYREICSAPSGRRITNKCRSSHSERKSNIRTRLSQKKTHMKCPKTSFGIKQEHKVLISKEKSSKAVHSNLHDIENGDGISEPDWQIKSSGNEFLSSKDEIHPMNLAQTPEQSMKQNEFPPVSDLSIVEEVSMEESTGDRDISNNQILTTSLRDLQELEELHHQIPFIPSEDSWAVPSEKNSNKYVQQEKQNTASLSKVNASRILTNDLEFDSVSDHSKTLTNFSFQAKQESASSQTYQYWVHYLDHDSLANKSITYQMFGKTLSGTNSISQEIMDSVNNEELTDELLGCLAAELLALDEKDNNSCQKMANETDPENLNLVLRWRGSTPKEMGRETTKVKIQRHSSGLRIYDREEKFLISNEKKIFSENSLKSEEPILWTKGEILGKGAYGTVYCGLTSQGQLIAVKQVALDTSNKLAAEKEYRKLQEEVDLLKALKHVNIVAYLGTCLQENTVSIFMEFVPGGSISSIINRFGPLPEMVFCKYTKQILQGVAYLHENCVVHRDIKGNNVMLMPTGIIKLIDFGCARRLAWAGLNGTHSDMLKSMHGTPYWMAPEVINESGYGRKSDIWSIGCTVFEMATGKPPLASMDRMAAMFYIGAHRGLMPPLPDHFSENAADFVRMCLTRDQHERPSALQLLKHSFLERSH

[24] = target: MLTK (human) (UniProt Q9NYL2); conditions: compound 1.0 µM
[25] = target: BMPR1A (human) (UniProt P36894); conditions: compound 1.0 µM
[26] = target: LIMK2 (human) (UniProt P53671); conditions: compound 1.0 µM
[27] = system: EGFR (human), P00533 [G719C]; conditions: compound 1.0 µM
[28] = target: NIM1 (human) (UniProt Q8IY84); conditions: compound 1.0 µM
[29] = target: NTRK3 (human) (UniProt Q16288); conditions: compound 1.0 µM
[30] = target: FLT4 (human) (UniProt P35916); conditions: compound 1.0 µM
[31] = target: SRPK2 (human) (UniProt P78362); conditions: compound 1.0 µM
[32] = target: STK24 (human) (UniProt Q9Y6E0); conditions: compound 1.0 µM
[33] = target: GSK3B (human) (UniProt P49841); conditions: compound 1.0 µM
[34] = target: IRAK1 (human) (UniProt P51617); conditions: compound 1.0 µM
[35] = system: EGFR (human), P00533 [752-759 del]; conditions: compound 1.0 µM
[36] = target: CDK11B (human) (UniProt P21127); conditions: compound 1.0 µM
[37] = target: PAK7 (human) (UniProt Q9P286); conditions: compound 1.0 µM
[38] = target: TSSK1B (human) (UniProt Q9BXA7); conditions: compound 1.0 µM
Chain of TSSK1B (human) (Q9BXA7 whole entry, looked up): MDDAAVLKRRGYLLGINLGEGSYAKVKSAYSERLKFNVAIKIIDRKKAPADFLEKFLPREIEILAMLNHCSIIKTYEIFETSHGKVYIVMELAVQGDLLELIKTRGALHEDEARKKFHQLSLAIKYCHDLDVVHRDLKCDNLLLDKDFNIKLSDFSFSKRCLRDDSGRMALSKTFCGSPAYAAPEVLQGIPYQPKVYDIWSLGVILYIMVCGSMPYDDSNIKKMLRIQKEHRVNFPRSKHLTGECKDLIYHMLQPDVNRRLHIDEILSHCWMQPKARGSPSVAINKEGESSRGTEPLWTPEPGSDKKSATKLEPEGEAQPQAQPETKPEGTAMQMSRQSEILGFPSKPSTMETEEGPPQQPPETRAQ

[39] = target: CSNK2A2 (human) (UniProt P19784); conditions: compound 1.0 µM
[40] = target: EIF2AK1 (human) (UniProt Q9BQI3); conditions: compound 1.0 µM
[41] = target: PIP5K1A (human) (UniProt Q99755); conditions: compound 1.0 µM
[42] = target: PTK2 (human) (UniProt Q05397); conditions: compound 1.0 µM

Chain of STK38L (human) (Q9Y2H1 whole entry, looked up): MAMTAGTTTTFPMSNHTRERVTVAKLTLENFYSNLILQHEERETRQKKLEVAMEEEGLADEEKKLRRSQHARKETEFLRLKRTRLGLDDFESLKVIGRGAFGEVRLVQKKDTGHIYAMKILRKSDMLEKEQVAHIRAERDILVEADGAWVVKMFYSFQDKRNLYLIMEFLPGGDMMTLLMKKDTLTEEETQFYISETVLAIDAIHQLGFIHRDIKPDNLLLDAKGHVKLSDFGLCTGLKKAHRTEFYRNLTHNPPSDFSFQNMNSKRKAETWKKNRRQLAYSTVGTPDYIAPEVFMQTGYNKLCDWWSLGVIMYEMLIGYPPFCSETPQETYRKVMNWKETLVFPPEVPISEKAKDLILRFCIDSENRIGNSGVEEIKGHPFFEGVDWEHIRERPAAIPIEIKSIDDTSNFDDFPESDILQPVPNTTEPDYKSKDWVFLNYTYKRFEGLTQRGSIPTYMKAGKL

CN(C)C/C=C/C(=O)Nc1cccc(C(=O)Nc2ccc(Nc3nccc(-c4cccnc4)n3)cc2)c1
kinase still bound, per cent of control [1]: 99% | kinase still bound, per cent of control [2]: 100% | kinase still bound, per cent of control [3]: 100% | kinase still bound, per cent of control [4]: 72% | kinase still bound, per cent of control [5]: 100% | kinase still bound, per cent of control [6]: 69% | kinase still bound, per cent of control [7]: 95% | kinase still bound, per cent of control [8]: 18% | kinase still bound, per cent of control [9]: 67% | kinase still bound, per cent of control [10]: 5.8% | kinase still bound, per cent of control [11]: 16% | kinase still bound, per cent of control [12]: 86% | kinase still bound, per cent of control [13]: 100% | kinase still bound, per cent of control [14]: 6.8% | kinase still bound, per cent of control [15]: 66% | kinase still bound, per cent of control [16]: 65% | kinase still bound, per cent of control [17]: 24% | kinase still bound, per cent of control [18]: 74% | kinase still bound, per cent of control [19]: 86% | kinase still bound, per cent of control [20]: 3.6% | kinase still bound, per cent of control [21]: 100% | kinase still bound, per cent of control [22]: 69% | Kd [23]: 4.8 nM | kinase still bound, per cent of control ([23]; compound 1.0 µM): 0.1% | kinase still bound, per cent of control [24]: 46% | kinase still bound, per cent of control [25]: 46% | kinase still bound, per cent of control [26]: 82% | kinase still bound, per cent of control [27]: 48% | kinase still bound, per cent of control [28]: 100% | kinase still bound, per cent of control [29]: 97% | kinase still bound, per cent of control [30]: 95% | kinase still bound, per cent of control [31]: 70% | kinase still bound, per cent of control [32]: 86% | kinase still bound, per cent of control [33]: 78% | kinase still bound, per cent of control [34]: 0.1% | kinase still bound, per cent of control [35]: 81% | kinase still bound, per cent of control [36]: 71% | kinase still bound, per cent of control [37]: 75% | kinase still bound, per cent of control [38]: 100% | kinase still bound, per cent of control [39]: 13% | kinase still bound, per cent of control [40]: 100% | kinase still bound, per cent of control [41]: 18% | kinase still bound, per cent of control [42]: 100%
